From ChEMBL document CHEMBL2086270, “Rational Design, Synthesis, and SAR of a Novel Thiazolopyrimidinone Series of Selective PI3K-beta Inhibitors” (ACS Med Chem Lett, 2012) come the findings set out here.

The clearance is a measure of how efficiently the substance is removed, as volume per time. High values mean a high capacity for elimination, low ones a low capacity for elimination. Broadly, the EC50 is the concentration needed to bring the measured effect to its halfway point. By IC50 is commonly meant the concentration that gives 50% inhibition. For orientation: bioavailability means the share of a dose that reaches the circulation, judged against a reference dose that is usually intravenous. Read a low bioavailability as poor availability. Usually half-life stands for how long it takes for the measured level to halve. A high value points to slow decline. In general, GI50 refers to the concentration at which growth is held to half of that of the control. Read a high GI50 as less potent growth inhibition.

Data set [1] can be described thus: Clearance in CD mouse at 0.3 mg/kg, iv. In kind it is ADME, organism-based. Also noted: dose 0.3 mg/kg, route intravenous. The following applies: in vivo.
In data set [2] the target is T1, Phosphatidylinositol 4,5-bisphosphate 3-kinase catalytic subunit beta isoform (Homo sapiens, UniProt P42338). The experiment in a line: Inhibition of PI3K beta in human PTEN-deficient MDA-MB-468 cells assessed as inhibition of Akt Ser473 phosphorylation. In kind it is cell-based.
The target in data set [3] is T1, Phosphatidylinositol 4,5-bisphosphate 3-kinase catalytic subunit beta isoform. The experiment in a line: Inhibition of PI3K beta by continuous TR-FRET assay.
Data set [4] in a line: Oral bioavailability in CD mouse at 100 mg/kg. Format: ADME, organism-based. The following applies: in vivo.
A further data set deals with Mus musculus. Put plainly: Dose normalized AUC in CD mouse at 100 mg/kg, po. Format: ADME, organism-based. Also noted: dose 100 mg/kg, route oral. The following applies: in vivo.
A short description of data set [5]: Volume of distribution at steady state in CD mouse at 0.3 mg/kg, iv. Format: ADME, organism-based. Also on record: dose 0.3 mg/kg, route intravenous. Particulars: in vivo, read-out: Vdss.
The target in data set [6] is Phosphatidylinositol 4,5-bisphosphate 3-kinase catalytic subunit alpha isoform (Homo sapiens, UniProt P42336). The experiment in a line: Inhibition of PI3K alpha by continuous TR-FRET assay.
Data set [7] can be described thus: Half life in CD mouse at 0.3 mg/kg, iv. In kind it is ADME, organism-based. Also noted: dose 0.3 mg/kg, route intravenous. Particulars: in vivo.
The target in data set [8] is Phosphatidylinositol 4,5-bisphosphate 3-kinase catalytic subunit gamma isoform (Homo sapiens, UniProt P48736). Put plainly: Inhibition of PI3K gamma by continuous TR-FRET assay.
For data set [9], the target named is T2, Phosphatidylinositol 4,5-bisphosphate 3-kinase catalytic subunit delta isoform (Homo sapiens, UniProt O00329).
T2 sequence (O00329 whole entry): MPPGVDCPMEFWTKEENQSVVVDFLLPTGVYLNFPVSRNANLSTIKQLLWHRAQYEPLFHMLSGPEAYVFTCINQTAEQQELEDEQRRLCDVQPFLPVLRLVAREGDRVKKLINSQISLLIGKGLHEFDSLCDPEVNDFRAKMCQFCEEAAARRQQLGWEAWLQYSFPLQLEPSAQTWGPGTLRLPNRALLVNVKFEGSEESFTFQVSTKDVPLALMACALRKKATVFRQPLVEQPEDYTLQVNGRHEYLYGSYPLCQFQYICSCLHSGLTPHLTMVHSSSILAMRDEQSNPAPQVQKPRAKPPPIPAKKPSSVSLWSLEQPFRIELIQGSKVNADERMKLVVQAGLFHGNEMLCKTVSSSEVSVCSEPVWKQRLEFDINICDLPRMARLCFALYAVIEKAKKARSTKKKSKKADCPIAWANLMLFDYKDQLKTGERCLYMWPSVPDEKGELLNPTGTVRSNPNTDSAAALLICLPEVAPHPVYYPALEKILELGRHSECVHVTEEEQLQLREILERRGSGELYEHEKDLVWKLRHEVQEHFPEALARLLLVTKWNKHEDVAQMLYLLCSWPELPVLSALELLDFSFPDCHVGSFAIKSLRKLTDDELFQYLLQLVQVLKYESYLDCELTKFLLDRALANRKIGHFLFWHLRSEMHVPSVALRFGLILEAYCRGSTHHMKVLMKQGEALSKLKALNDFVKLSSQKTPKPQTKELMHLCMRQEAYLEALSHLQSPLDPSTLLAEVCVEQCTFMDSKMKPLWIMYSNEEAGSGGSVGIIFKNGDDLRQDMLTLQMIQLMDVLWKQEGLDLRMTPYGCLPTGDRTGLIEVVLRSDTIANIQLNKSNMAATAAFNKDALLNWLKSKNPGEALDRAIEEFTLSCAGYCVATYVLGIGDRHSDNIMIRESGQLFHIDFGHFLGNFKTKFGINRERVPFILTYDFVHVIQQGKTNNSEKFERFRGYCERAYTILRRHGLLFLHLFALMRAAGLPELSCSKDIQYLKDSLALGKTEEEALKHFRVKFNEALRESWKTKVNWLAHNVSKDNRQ
Put plainly: Inhibition of PI3K delta by continuous TR-FRET assay.

Another data set deals with MDA-MB-468. Put plainly: Antiproliferative activity against PTEN-deficient human MDA-MB-468 cells. Format: functional.

T1 sequence (P42338 whole entry, canonical isoform): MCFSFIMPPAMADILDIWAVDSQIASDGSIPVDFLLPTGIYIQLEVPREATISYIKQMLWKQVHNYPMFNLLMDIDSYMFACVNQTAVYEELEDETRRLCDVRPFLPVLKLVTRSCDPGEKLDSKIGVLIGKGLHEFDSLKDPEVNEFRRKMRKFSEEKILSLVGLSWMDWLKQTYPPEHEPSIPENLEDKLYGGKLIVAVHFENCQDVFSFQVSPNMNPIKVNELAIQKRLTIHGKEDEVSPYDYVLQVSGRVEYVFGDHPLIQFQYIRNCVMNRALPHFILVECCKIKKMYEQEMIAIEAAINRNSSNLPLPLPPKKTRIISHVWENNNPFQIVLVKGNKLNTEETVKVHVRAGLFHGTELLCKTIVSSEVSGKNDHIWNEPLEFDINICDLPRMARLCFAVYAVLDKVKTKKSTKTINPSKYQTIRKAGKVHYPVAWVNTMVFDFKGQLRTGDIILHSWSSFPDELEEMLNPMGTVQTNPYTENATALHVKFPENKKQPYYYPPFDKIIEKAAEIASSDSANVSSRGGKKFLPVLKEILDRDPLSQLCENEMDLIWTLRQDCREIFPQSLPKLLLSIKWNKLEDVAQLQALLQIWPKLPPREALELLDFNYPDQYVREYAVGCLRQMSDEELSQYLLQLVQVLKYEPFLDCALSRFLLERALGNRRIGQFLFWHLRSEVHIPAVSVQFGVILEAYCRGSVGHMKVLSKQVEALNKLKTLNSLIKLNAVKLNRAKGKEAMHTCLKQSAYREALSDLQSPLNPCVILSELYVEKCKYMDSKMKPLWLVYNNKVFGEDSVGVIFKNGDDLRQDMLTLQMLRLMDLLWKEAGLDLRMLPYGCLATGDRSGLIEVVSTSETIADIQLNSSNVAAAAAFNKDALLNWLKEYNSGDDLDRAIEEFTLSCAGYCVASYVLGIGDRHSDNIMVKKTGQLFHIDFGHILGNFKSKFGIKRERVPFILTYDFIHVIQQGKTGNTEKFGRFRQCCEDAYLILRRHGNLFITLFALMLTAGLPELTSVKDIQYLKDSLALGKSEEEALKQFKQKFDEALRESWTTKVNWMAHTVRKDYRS
Chain of Phosphatidylinositol 4,5-bisphosphate 3-kinase catalytic subunit alpha isoform (P42336 whole entry, canonical isoform): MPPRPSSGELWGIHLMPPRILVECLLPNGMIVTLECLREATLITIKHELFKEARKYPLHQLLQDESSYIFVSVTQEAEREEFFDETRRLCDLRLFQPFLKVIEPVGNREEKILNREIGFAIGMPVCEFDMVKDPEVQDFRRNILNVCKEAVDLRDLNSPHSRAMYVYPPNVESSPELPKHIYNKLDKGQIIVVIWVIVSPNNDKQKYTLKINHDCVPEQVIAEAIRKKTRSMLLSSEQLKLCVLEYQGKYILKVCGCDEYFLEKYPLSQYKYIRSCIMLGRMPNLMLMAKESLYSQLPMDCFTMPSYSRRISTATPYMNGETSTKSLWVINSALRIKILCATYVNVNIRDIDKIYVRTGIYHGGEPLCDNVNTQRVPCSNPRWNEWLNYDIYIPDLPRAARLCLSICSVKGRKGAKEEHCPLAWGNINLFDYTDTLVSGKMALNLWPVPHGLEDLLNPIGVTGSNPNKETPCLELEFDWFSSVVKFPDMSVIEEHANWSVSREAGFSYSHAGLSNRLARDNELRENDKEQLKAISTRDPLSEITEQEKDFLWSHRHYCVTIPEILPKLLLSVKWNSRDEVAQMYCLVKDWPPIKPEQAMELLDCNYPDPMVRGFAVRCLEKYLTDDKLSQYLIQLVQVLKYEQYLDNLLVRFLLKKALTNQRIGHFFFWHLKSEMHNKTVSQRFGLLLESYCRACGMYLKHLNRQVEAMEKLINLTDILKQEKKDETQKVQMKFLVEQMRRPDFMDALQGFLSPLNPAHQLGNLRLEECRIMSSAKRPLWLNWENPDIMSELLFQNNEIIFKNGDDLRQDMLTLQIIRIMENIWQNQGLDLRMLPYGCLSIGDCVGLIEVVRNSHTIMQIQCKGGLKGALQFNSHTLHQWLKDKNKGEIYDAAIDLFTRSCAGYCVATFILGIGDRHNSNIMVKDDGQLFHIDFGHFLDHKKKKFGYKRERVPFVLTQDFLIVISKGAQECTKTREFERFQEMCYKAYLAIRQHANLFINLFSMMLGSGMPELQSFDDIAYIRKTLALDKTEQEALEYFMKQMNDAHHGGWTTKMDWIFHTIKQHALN
Chain of Phosphatidylinositol 4,5-bisphosphate 3-kinase catalytic subunit gamma isoform (P48736 whole entry, canonical isoform): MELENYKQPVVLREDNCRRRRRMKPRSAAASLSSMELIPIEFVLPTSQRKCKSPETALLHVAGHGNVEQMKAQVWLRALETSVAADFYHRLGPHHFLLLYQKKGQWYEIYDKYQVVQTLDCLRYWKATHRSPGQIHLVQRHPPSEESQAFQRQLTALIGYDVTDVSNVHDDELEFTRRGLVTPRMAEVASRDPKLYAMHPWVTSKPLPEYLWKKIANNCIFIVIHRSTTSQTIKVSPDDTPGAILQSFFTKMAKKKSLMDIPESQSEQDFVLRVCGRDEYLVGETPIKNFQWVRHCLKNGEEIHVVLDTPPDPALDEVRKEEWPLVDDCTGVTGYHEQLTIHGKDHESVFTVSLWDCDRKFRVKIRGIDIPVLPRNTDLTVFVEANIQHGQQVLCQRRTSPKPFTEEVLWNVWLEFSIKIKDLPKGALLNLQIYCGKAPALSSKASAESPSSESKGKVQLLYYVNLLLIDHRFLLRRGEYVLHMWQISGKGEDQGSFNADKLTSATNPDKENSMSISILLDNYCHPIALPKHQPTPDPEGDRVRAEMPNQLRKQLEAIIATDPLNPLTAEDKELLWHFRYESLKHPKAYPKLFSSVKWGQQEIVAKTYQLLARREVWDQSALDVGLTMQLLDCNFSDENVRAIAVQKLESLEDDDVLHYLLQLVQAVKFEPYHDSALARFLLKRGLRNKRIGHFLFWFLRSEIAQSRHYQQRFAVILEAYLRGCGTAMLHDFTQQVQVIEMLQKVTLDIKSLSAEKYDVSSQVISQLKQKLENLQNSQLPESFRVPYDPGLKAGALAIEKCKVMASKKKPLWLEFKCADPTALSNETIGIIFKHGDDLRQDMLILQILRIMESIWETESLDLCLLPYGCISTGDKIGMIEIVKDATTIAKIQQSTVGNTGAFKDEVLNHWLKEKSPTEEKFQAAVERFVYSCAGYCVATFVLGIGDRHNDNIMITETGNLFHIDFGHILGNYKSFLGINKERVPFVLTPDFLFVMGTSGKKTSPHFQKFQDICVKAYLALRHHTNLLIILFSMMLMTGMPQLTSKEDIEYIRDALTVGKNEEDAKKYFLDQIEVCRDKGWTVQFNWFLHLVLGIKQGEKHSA

With `Cc1c(Cn2c(C3CC3)nc(=O)c3sc(N4CCOCC4)nc32)cccc1C(F)(F)F`, the clearance in [1] came out at 48.6 mL/min/kg. The EC50 in data set [2] stood at 9 nM. The IC50 came to 0.5 nM in data set [3], 1300 nM in data set [6], 1000 nM in [8] and 16 nM in [9]. Further, the bioavailability in data set [4] turned out to be 54%. Further, in the data set on Mus musculus, the AUC/dose is recorded as 192 ng/(hr.mL.mg.kg). The Vd in data set [5] came out at 2.6 L/kg. The compound also showed a half-life in data set [7] of 0.75 h. In addition, in the data set on MDA-MB-468, the GI50 was 43 nM.

As for `COc1nc(=O)c2sc(N3CCOCC3)nc2n1Cc1cccc(Cl)c1C`, the EC50 in [2] came out at 6 nM. Moreover, the IC50 is 0.3 nM in data set [3], 1600 nM in [6], 400 nM in data set [8] and 10 nM in [9]. Further, the GI50 with MDA-MB-468 was 21 nM.

As to `CCc1nc(=O)c2sc(N3CCOCC3)nc2n1Cc1cccc(C(F)(F)F)c1C`, the EC50 in [2] is 16 nM. Moreover, the IC50 in data set [3] is 0.5 nM; in [6], > 4000 nM; in [8] it was 1300 nM; in [9], 13 nM. The GI50 with MDA-MB-468 is 23 nM.

In the case of `O=c1ncn(Cc2ccsc2Cl)c2nc(N3CCOCC3)sc12`, the IC50 is 790 nM in data set [3], 3200 nM in data set [6], 4000 nM in data set [8] and 2500 nM in data set [9].

In the case of `Cc1c(Cn2cnc(=O)c3sc(N4CCOCC4)nc32)cccc1C(F)(F)F`, the IC50 in data set [3] is 3 nM; in [6] it was 4000 nM; in data set [8] it was 1600 nM; in data set [9], 63 nM.

Consider `O=c1ncn(Cc2cccc(Cl)c2)c2nc(N3CCOCC3)sc12`, for which the IC50 in [3] is 79 nM; in [6], > 3200 nM; in data set [8] it was > 790 nM; in data set [9], 320 nM.

In the case of `Cc1c(Cl)cccc1Cn1c(CO)nc(=O)c2sc(N3CCOCC3)nc21`, the clearance in [1] is 29.4 mL/min/kg. Besides, the EC50 in data set [2] turned out to be 6 nM. Moreover, the IC50 is 0.1 nM in data set [3], 500 nM in data set [6], 250 nM in [8] and 2 nM in [9]. Besides, in [4], the bioavailability came out at 21%. Also, the AUC/dose in the data set with Mus musculus is 264 ng/(hr.mL.mg.kg). Besides, the Vd in [5] is 3.35 L/kg. For the same compound, in data set [7], the half-life is 1.9 h. The compound also gave a GI50 with MDA-MB-468 of 8 nM.

`Cc1c(Cl)cccc1Cn1c(N)nc(=O)c2sc(N3CCOCC3)nc21`: the EC50 in [2] was found to be 3 nM. Further, the IC50 in [3] came out at 0.2 nM; in [6], 250 nM; in data set [8], 500 nM; in data set [9], 3 nM. The compound further came in with a GI50 with MDA-MB-468 of 26 nM.

For the compound `CSc1nc(=O)c2sc(N3CCOCC3)nc2n1Cc1cccc(Cl)c1C`, the IC50 in data set [3] amounted to 0.3 nM; in data set [6], 2000 nM; in [8], 2500 nM; in data set [9], 10 nM.

`Cc1c(Cn2c(CN)nc(=O)c3sc(N4CCOCC4)nc32)cccc1C(F)(F)F`: the IC50 in [3] is 3 nM; in data set [6], > 2500 nM; in [8], > 7900 nM; in [9], 160 nM.

For the compound `O=c1ncn(Cc2cccc(Cl)c2Cl)c2nc(N3CCOCC3)sc12`, the IC50 in data set [3] turned out to be 10 nM; in data set [6], 1000 nM; in data set [8], 1300 nM; in [9] it was 79 nM.

Consider `O=c1ncn(Cc2ccccc2)c2nc(N3CCOCC3)sc12`, for which the IC50 in [3] amounted to 320 nM; in [6], 7900 nM; in data set [8] it was 6300 nM; in data set [9] it was 2000 nM.

Regarding `Cc1c(Cl)cccc1Cn1cnc(=O)c2sc(N3CCOCC3)nc21`, the IC50 in data set [3] is 3 nM; in data set [6] it was 2500 nM; in data set [8], 2500 nM; in data set [9], 40 nM.

As to `Cc1c(Cl)cccc1Cn1c(=O)[nH]c(=O)c2sc(N3CCOCC3)nc21`, the IC50 in data set [3] was 8 nM; in [6], 50000 nM; in [8], > 6300 nM; in data set [9], 500 nM.

For the compound `Cc1c(Cl)cccc1Cn1c(C)nc(=O)c2sc(N3CCOCC3)nc21`, in data set [2], the EC50 was 19 nM. For the same compound, the IC50 in [3] was determined as 0.5 nM; in data set [6] it was 2000 nM; in data set [8] it was 1000 nM; in data set [9] it was 10 nM. In the data set on MDA-MB-468, this compound came in with a GI50 of 32 nM.

Turning to `Cc1c(Cn2c(CO)nc(=O)c3sc(N4CCOCC4)nc32)cccc1C(F)(F)F`, the IC50 in data set [3] came out at 0.2 nM; in data set [6] it was 630 nM; in data set [8] it was 250 nM; in data set [9], 3 nM.

`Cc1c(Cn2c(Cc3ccccc3)nc(=O)c3sc(N4CCOCC4)nc32)cccc1C(F)(F)F`: the IC50 in data set [3] was 3 nM; in data set [6] it was 2500 nM; in data set [8], 2000 nM; in data set [9], 63 nM.

Consider `Cc1c(Cl)cccc1Cn1c(SCC(=O)O)nc(=O)c2sc(N3CCOCC3)nc21`, for which the IC50 in [3] worked out at 0.05 nM; in data set [6], 400 nM; in data set [8], 160 nM; in data set [9], 2 nM.

As to `CC(c1ccccc1)n1cnc(=O)c2sc(N3CCOCC3)nc21` (stereo not drawn), the IC50 was 400 nM in data set [3], > 4000 nM in data set [6], 5000 nM in [8] and 500 nM in [9].

Take `Cc1c(Cl)cccc1Cn1c(=S)[nH]c(=O)c2sc(N3CCOCC3)nc21`: the IC50 in data set [3] was 5 nM; in [6], 2000 nM; in data set [8], > 3200 nM; in data set [9], 50 nM.

For `O=c1ncn(CCc2ccccc2)c2nc(N3CCOCC3)sc12`, the IC50 in data set [3] was 790 nM; in data set [6], > 2000 nM; in data set [8], 3200 nM; in data set [9], 1000 nM.

Turning to `Cc1ccccc1Cn1cnc(=O)c2sc(N3CCOCC3)nc21`, the IC50 was determined as 25 nM in data set [3], 2500 nM in data set [6], 2500 nM in data set [8] and 250 nM in [9].

Take `O=c1ncn(Cc2ccccc2Cl)c2nc(N3CCOCC3)sc12`: the IC50 in [3] is 160 nM; in data set [6], 2500 nM; in data set [8], 7900 nM; in data set [9], > 790 nM.

For the compound `Cc1c(Cn2c(-c3ccccc3)nc(=O)c3sc(N4CCOCC4)nc32)cccc1C(F)(F)F`, the IC50 in data set [3] was 50 nM; in data set [6], > 3200 nM; in [8] it was 4000 nM; in data set [9], 500 nM.
